Source: patent US11065253B2, “Arylquinazolines” (Merck Patent GmbH, priority 2013, dated 2021)
pIC50: −log10 of the molar value. Where two headings read alike, the source gives them in different places.

How the values were obtained:
Kv11.1 (hERG) channel = Kv11.1 (hERG) channel (Homo sapiens (Human), UniProt Q12809); test: Kv11.1 ion channel binding assay (Predictor hERG fluorescence polarisation); conditions: class symbol marked with asterisk (*)
Experimental: D) Kv11.1 Ion Channel Binding Assay
Kv11.1 (hERG=human ether a go-go related […]) is a cardiac K^+ channel which should if possible not interact with the test substances. This interaction is determined quantitatively with the aid of the Predictor™ hERG Fluorescence Polarizations (FP) Assays from Life Technologies. In the case of this assay principle, cardiomyocyte cell membranes having a certain proportion of Kv11.1 channels are isolated. A dye-labelled Kv11.1 binding partner gives a high fluorescence polarisation signal by interaction with the Kv11.1. In the case of displacement of the dye, a reduction in the fluorescence polarisation signal occurs.
The assay is carried out automatically as follows: 15 nl of the test substances (highest concentration: 10 mM, 10 concentrations: dilution factors 1:3.16, DMSO) are transferred into an empty microtitre plates having 384 wells by means of an acoustic pipetter. 3 μl of the isolated membranes are subsequently added. Membranes and test substances are incubated at 22° C. for 15 min (+/−5 min). In the next step, the dye-labelled binding partner is added, followed by incubation at 22° C. After incubation for two hours, the measurement of the fluorescence polarisation is carried out on an Envision multimode Reader. Measured raw data are standardised with the aid of Genedata Assay Analyzer. The IC50 and % effect values are calculated in Genedata Condoseo.

[1] = tested on: phospho-serine 2056 DNA-PK in HCT116 cells; test: DNA-PK phosphorylation at serine 2056 (cellular), ELISA in bleomycin-treated HCT116 cells; format: cell-based; conditions: read-out: IC50 pDNA-PK
Procedure, shortened: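 Test compounds and bleomycin (10 μM) are added to adherent HCT116 cells for 6 h. Detection uses an HRP-based chemiluminescent ELISA, with phospho-DNA-PK signals standardised to total protein.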

[2] = Homo sapiens, HCT-116, phospho-serine 2056 DNA-PK, bleomycin-treated HCT116 cells
[3] = phospho-serine 2056 DNA-PK, bleomycin-treated HCT116 cells
[4] = Homo sapiens, HCT-116, phospho-serine 2056 DNA-PK, bleomycin-treated HCT116 cells, class symbols A-D
[5] = Homo sapiens, HCT-116, cellular DNA-PK phosphorylation at serine 2056, HCT116 cells

Kv11.1 (hERG) channel, sequence (Q12809 whole entry): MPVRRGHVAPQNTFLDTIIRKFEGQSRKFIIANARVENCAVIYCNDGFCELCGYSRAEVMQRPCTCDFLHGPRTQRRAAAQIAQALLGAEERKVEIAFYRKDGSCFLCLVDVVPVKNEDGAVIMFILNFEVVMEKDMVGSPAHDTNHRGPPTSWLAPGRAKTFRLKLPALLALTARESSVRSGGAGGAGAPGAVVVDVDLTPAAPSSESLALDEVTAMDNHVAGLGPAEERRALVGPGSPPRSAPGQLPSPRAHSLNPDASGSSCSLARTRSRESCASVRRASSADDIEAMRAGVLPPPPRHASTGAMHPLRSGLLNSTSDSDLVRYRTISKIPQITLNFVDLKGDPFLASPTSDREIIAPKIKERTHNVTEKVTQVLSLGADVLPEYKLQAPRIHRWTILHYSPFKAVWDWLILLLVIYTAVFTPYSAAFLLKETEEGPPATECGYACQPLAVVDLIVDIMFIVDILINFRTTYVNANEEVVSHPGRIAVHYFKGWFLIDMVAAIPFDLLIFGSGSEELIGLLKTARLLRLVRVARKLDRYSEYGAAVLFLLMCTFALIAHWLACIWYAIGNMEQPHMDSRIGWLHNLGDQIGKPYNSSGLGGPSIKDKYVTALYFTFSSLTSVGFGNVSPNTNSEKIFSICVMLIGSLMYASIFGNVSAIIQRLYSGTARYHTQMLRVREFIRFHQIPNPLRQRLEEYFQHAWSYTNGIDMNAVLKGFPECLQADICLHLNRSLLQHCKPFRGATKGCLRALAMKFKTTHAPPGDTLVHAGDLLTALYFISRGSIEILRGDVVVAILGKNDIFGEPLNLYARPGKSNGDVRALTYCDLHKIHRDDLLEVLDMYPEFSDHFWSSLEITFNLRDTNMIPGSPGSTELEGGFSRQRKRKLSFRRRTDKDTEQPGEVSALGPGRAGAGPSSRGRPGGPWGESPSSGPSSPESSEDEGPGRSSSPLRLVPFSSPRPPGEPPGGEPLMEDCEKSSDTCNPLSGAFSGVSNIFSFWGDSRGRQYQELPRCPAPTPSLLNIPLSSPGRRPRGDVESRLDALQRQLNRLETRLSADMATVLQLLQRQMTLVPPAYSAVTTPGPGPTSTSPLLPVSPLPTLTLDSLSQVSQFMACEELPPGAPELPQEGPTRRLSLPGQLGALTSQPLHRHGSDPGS

pIC50 [1, 2] | SMILES | Ki [Kv1.11 hERG] (Kv11.1 (hERG) channel) | further results
5.30 to 6.30 | Cc1nccnc1[C@@H](O)c1ccc(F)c(-c2ncnc3cc(N4CCOCC4)cc(F)c23)c1 [Example 251, (S)-[4-fluoro-3-(5-fluoro-7-morpholin-4-ylquinazolin-4-yl)-phenyl]-(3-methyl-pyrazin-2-yl)-methanol] | A* | 
> 6.30 | Fc1cc(Cl)c(Cc2ccc3nccn3n2)cc1-c1ncnc2cc(N3CCOCC3)ccc12 [Example 235, 4-(4-Chloro-2-fluoro-5-imidazo[1,2-b]-pyridazin-6-ylmethyl-phenyl)-7-morpholin-4-ylquinazoline] | A* | 
5.30 to 6.30 | Cc1nccnc1C(C(N)=O)c1cc(-c2ncnc3cc(N4CCOCC4)sc23)c(F)cc1Cl (stereo not shown) [Example 269, 2-[2-Chloro-4-fluoro-5-(6-morpholin-4-yl-thieno[3,2-d}-pyrimidin-4-yl)-phenyl]-2-(3-methyl-pyrazin-2-yl)-acetamide] | A* | 
 | COc1nccnc1C(O)c1ccc(F)c(-c2ncnc3cc(N4CCOCC4)cc(F)c23)c1 (stereo not shown) [Example 252, [4-Fluoro-3-(5-fluoro-7-morpholin-4-yl-quinazolin-4-yl)-phenyl]-(3-methoxy-pyrazin-2-yl)-methanol] | A* | pIC50 [1, 3]: > 6.30
4.52 to 5.00 | COc1ccc(C(O)c2ccc(F)c(-c3ncnc4cc(N5CCOCC5)c(F)cc34)c2)nn1 (stereo not shown) [Example 282, [4-Fluoro-3-(6-fluoro-7-morpholin-4-yl-quinazolin-4-yl)-phenyl]-(6-methoxy-pyridazin-3-yl)-methanol] | A* | 
5.00 to 5.30 | OC(c1ccc(F)c(-c2ncnc3cc(N4CCOCC4)ccc23)c1)c1nccn2ncnc12 (stereo not shown) [Example 279, [4-Fluoro-3-(7-morpholin-4-yl-quinazolin-4-yl)-phenyl]-[1,2,4]-triazolo[1,5-a]-pyrazin-8-ylmethanol] | A* | 
 | COC(c1ccc(F)c(-c2ncnc3cc(N4CCOCC4)ccc23)c1)c1nccnc1C (stereo not shown) [Example 352] | A* | 
 | Cc1nccnc1C(O)c1ccc(F)c(-c2ncnc3cc(N4CCOCC4)sc23)c1 (stereo not shown) [Example 246, [4-Fluoro-3-(6-morpholin-4-yl-thieno[3,2-d}-pyrimidin-4-yl)-phenyl]-(3-methyl-pyrazin-2-yl)-methanol] | A* | 
 | COc1ccc(C(O)c2cc(-c3ncnc4cc(N5CCOCC5)cc(F)c34)c(F)cc2Cl)nn1 (single isomer, unassigned) [Example 263, [2-Chloro-4-fluoro-5-(5-fluoro-7-morpholin-4-yl-quinazolin-4-yl)-phenyl]-(6-methoxy-pyridazin-3-yl)-methanol] | A* | 
 | COc1nccnc1C(O)c1ccc(F)c(-c2ncnc3cc(N4CCOCC4)cc(F)c23)c1 (single isomer, unassigned) [Example 253, [4-Fluoro-3-(5-fluoro-7-morpholin-4-yl-quinazolin-4-yl)-phenyl]-(3-methoxy-pyrazin-2-yl)-methanol] | A* | 
 | OC(c1ccc(F)c(-c2ncnc3cc(N4CCOCC4)ccc23)c1)c1cccnn1 (stereo not shown) [Example 65, [4-Fluoro-3-(7-morpholin-4-yl-quinazolin-4-yl)phenyl]-pyridazin-3-ylmethanol] |  | pIC50 ([1]; Homo sapiens, HCT-116, 6 h, cellular, HCT116 cells, 10 μM bleomycin, six hours): 5.30 to 6.30
 | Cn1cc(C(O)c2ccc(F)c(-c3ncnc4cc(N5CCOCC5)ccc34)c2)cn1 (stereo not shown) [Example 191, [4-Fluoro-3-(7-morpholin-4-yl-quinazolin-4-yl)-phenyl]-(1-methyl-1H-pyrazol-4-yl)-methanol] |  | pIC50 [1, 4]: 4.52 to 5.00
 | OC(c1cccc(-c2ncnc3cc(N4CCOCC4)ccc23)c1)c1nccs1 (stereo not shown) [Example 150, [3-(7-Morpholin-4-ylquinazolin-4-yl)-phenyl]thiazol-2-yl-methanol] |  | pIC50 [1, 4]: 5.00 to 5.30
 | OC(c1ccc(F)c(-c2ncnc3cc(N4CCOCC4)ccc23)c1)c1ncnc2ccoc12 (stereo not shown) [Example 442, [4-Fluoro-3-(7-morpholin-4-yl-quinazolin-4-yl)-phenyl]furo[3,2-d}-pyrimidin-4-yl-methanol] |  | pIC50 [1, 5]: > 6.30
4.52 to 5.00 | Cc1cc(C(C(N)=O)c2cc(-c3ncnc4cc(N5CCOCC5)ccc34)c(F)cc2Cl)n(C)c(=O)c1 (stereo not shown) [Example 334, 2-[2-Chloro-4-fluoro-5-(7-morpholin-4-yl-quinazolin-4-yl)-phenyl]-2-(1,4-dimethyl-6-oxo-1,6-dihydropyridin-2-yl)-acetamide] |  | 
 | Cc1cncnc1C(C(N)=O)c1cc(-c2ncnc3cc(N4CCOCC4)ccc23)ccc1Cl (stereo not shown) [Example 377, 2-[2-Chloro-5-(7-morpholin-4-yl-quinazolin-4-yl)-phenyl]-2-(5-methyl-pyrimidin-4-yl)-acetamide (Ena 2)] |  | pIC50 [1, 5]: 5.30 to 6.30
 | OC(c1ccc(F)c(-c2ncnc3cc(N4CCOCC4)ccc23)c1)c1ncccc1Cl (stereo not shown) [Example 465, (3-Chloro-pyridin-2-yl)-[4-fluoro-3-(7-morpholin-4-yl-quinazolin-4-yl)-phenyl]methanol] |  | pIC50 [1, 5]: > 6.30
 | OC(c1cccnn1)c1cc(-c2ncnc3cc(N4CCOCC4)ccc23)c(F)cc1Cl (stereo not shown) [Example 47, [2-Chloro-4-fluoro-5-(7-morpholin-4-yl-quinazolin-4-yl)phenyl]-pyridazin-3-ylmethanol] |  | pIC50 ([1]; cellular, HCT116 cells, 10 μM bleomycin, six hours): > 6.30
 | N#Cc1ccc(C(O)c2cc(-c3ncnc4cc(N5CCOCC5)ccc34)c(F)cc2Cl)nn1 (stereo not shown) [Example 118, 6-{[2-Chloro-4-fluoro-5-(7-morpholin-4-yl-quinazolin-4-yl)-phenyl]hydroxy-methyl}pyridazine-3-carbonitrile] |  | pIC50 [1, 4]: 5.30 to 6.30
 | OC(c1cc(-c2ncnc3cc(N4CCOCC4)ccc23)c(F)cc1F)c1ncnc2ccsc12 (stereo not shown) [Example 439, [2,4-Difluoro-5-(7-morpholin-4-yl-quinazolin-4-yl)-phenyl]thieno[3,2-d}-pyrimidin-4-yl-methanol] |  | pIC50 [1, 5]: > 6.30
 | NC(=O)C(c1ccc(F)c(-c2ncnc3cc(N4CCOCC4)ccc23)c1)c1nncc2ccsc12 (stereo not shown) [Example 284, 2-[4-Fluoro-3-(7-morpholin-4-yl-quinazolin-4-yl)-phenyl]-2-thieno-[2,3-d}pyridazin-7-yl-acetamide] | A* | 
5.00 to 5.30 | Nc1cncc(C(O)c2ccc(F)c(-c3ncnc4cc(N5CCOCC5)ccc34)c2)n1 (stereo not shown) [Example 302, (6-Amino-pyrazin-2-yl)-[4-fluoro-3-(7-morpholin-4-yl-quinazolin-4-yl)-phenyl]methanol] |  | 
 | CNCc1csc(C(O)c2cc(-c3ncnc4cc(N5CCOCC5)ccc34)c(F)cc2Cl)n1 (stereo not shown) [Example 143, [2-Chloro-4-fluoro-5-(7-morpholin-4-yl-quinazolin-4-yl)-phenyl]-(4-methylamino-methyl-thiazol-2-yl)-methanol] |  | pIC50 [1, 4]: 5.00 to 5.30
 | Cn1ncc2c(C(O)c3cc(-c4ncnc5cc(N6CCOCC6)ccc45)c(F)cc3F)ncnc21 (stereo not shown) [Example 403, [2,4-Difluoro-5-(7-morpholin-4-yl-quinazolin-4-yl)-phenyl]-(1-methyl-1H-pyrazolo[3,4-d}-pyrimidin-4-yl)-methanol] |  | pIC50 [1, 5]: 5.30 to 6.30
4.52 to 5.00 | Cc1cnc(C(C(N)=O)c2ccc(F)c(-c3ncnc4cc(N5CCOCC5)ccc34)c2)c(C)n1 (stereo not shown) [Example 318, 2-(3,5-Dimethyl-pyrazin-2-yl)-2-[4-fluoro-3-(7-morpholin-4-yl-quinazolin-4-yl)-phenyl]acetamide] |  | 
 | COc1ccc(C(O)c2cc(-c3nc(Cl)nc4cc(N5CCOCC5)ccc34)c(F)cc2Cl)nn1 (stereo not shown) [Example 132, [2-Chloro-5-(2-chloro-7-morpholin-4-yl-quinazolin-4-yl)-4-fluorophenyl]-(6-methoxy-pyridazin-3-yl)-methanol] |  | pIC50 [1, 4]: 5.30 to 6.30
5.00 to 5.30 | COc1nccnc1C(C(N)=O)c1cc(-c2ncnc3cc(N4CCOCC4)ccc23)c(F)cc1F (stereo not shown) [Example 319, 2-[2,4-Difluoro-5-(7-morpholin-4-ylquinazolin-4-yl)phenyl]-2-(3-methoxypyrazin-2-yl)-acetamide] |  | 
> 6.30 | OC(c1cc(-c2ncnc3cc(N4CCOCC4)ccc23)c(F)cc1F)c1nncc2ccoc12 (stereo not shown) [Example 336, [2,4-Difluoro-5-(7-morpholin-4-yl-quinazolin-4-yl)-phenyl]furo[2,3-d}-pyridazin-7-yl-methanol] |  | 
 | COc1ccc(C(C(N)=O)c2cc(-c3ncnc4cc(N5CCOCC5)ccc34)c(F)cc2Cl)nn1 (stereo not shown) [Example 325, 2-[2-Chloro-4-fluoro-5-(7-morpholin-4-yl-quinazolin-4-yl)-phenyl]-2-(6-methoxypyridazin-3-yl)acetamide] |  | pIC50 [1, 3]: 4.52 to 5.00

SMILES | pIC50 [1, 2] | Ki [Kv1.11 hERG] (Kv11.1 (hERG) channel) | further results
COc1ccc(C(O)c2ccc(F)c(-c3ncnc4cc(N5CCOCC5)cc(F)c34)c2)nn1 (stereo not shown) [Example 255, [4-Fluoro-3-(5-fluoro-7-morpholin-4-yl-quinazolin-4-yl)-phenyl]-(6-methoxy-pyridazin-3-yl)-methanol] | > 6.30 | A* | 
